Test results published in patent EP4361136A1, “COMPOUND FOR THE TREATMENT OF GLIOBLASTOMA” (Universidad De Córdoba, priority 2021, dated 2022).

Assays:
U-87 MG cells = assay: Preclinical xenograft GBM mouse model, intratumoral injection; assay type: in vivo, mice
Procedure: A preclinical xenograft mouse model was developed to test pladienolide-b in vivo. Five-week-old ATHYMFoxn1nu/nu mice (n = 6; Janvier-Labs) were subcutaneously injected with 3×10^6 of U-87 MG cells in both flanks [in 100 µl of basal membrane extract (Trevigen, # 3432-010-01)]. Once the tumour was clearly measurable (10 days after cell inoculation), each mouse received an intratumour injection with 50 µl of pladienolide-b (10^-7 M) in one flank and vehicle (1x DPBS, Sigma-Aldrich, # D1408) used as a control in another flank. Tumour growth was monitored every 2 days using a digital caliper. 20 days after injection, mice were sacrificed and each tumour was dissected, fixed, and sectioned for histopathological examination after staining with haematoxylin and eosin. Examination of the number of mitoses, vascular proliferation and necrosis was performed by experienced pathologists. Additional tumour pieces were in liquid nitrogen until RNA extraction using Trizol reagent and protein extraction using SDS-DTT buffer, as previously reported. One individual was assessed by micro-CT imaging using SkyScan1176 Bruker and a software environment to show the location of the tumour in vivo prior to dissection. 2D analysis along with 3D image rendering was performed using VolView 3.4 software (KitWare Inc). […]

glioblastoma (GBM) cells = assay: In vitro functional assays in glioblastoma cells (proliferation, migration, tumoursphere formation, VEGF secretion, apoptosis, marker expression); assay type: cell-based, human
Procedure: The proliferation assay (see below) was used to develop a dose-response and IC50 determination of pladienolide-b in glioblastoma cells. The selected doses of pladienolide-b, based on previously reported in vitro studies, were 10^-9 , 10^-7 and 10^-5 M measured 48 h after administration of the SF3B1 inhibitor in glioblastoma cell lines and patient-derived primary glioblastoma cell culture. Least squares regression was used as a method of adjustment to the IC50 determination.
As described above, cell proliferation and migration in response to pladienolide-b treatment were analyzed using the alamar blue assay (3,000 cells/well for cell lines and 10,000 cells/well for primary cell cultures; Biosource International, # BUF012B) and the wound healing technique (150,000 U-118 MG cells/well), respectively. For the migration assay, U-118 MG cells cultured at confluence were serum deprived for 24 h to achieve cell synchronization and then wounded with a sterile 200 µl pipette tip. Wells were replaced and cells were incubated for 6 h and 24 h with medium supplemented without FBS. Wound healing was compared to the area immediately after wounding. […]
The VEGF human ELISA kit (ThermoFisher Scientific, no. KHG0112) was used to quantify VEGF secretion in response to pladienolide-b in glioblastoma cell lines, following the manufacturer's instructions. […]

In the case of `CC[C@H](O)[C@@H](C)[C@H]1O[C@@H]1C[C@H](C)/C=C/C=C(\C)[C@H]1OC(=O)C[C@H](O)CC[C@@](C)(O)[C@@H](OC(C)=O)/C=C/[C@@H]1C` [pladienolide-b, [(2 S, 3 S, 4 E , 6 S , 7 R , 10 R ) -7,10-dihydroxy-2 - [(2 E , 4 E, 6 S ) -7 - [(2 R , 3 R ) -3 - [(2 R , 3 S ) -3-hydroxypentan-2-yl]oxiran-2-yl] -6-methylhepta-2,4-dien-2-yl] -3,7-dimethyl-12-oxo-1-oxazacyclododec-4-en-6-yl] acetate], the “glioblastoma (GBM) progression and vascularization” value (U-87 MG cells; U-87 MG xenograft, intratumour injection of 50 µl (10^-7 M) versus vehicle-treated flank) is reported as “alters”, the “several functional parameters in vivo” value (U-87 MG cells; in vivo, summary statement (Figure 5)) is reported as “reduced” and the “critical functional parameters of aggressiveness and key markers of tumour development/progression/aggressiveness” value (glioblastoma (GBM) cells; 10^-7 M, compared to control conditions, U-87 MG, U-118 MG and patient-derived primary GBM cells) is reported as “decreases”. For the same compound, the “several functional parameters in vitro” value (glioblastoma (GBM) cells; summary statement (Figure 4)) was “reduced”.
